What was measured:
[1] = H2S absorption by iron oxalate in oil based mud (interdrill 1.62), GGT analysis (Example 2); conditions: 400 mg iron oxalate in 15 ml interdrill 1.62 oil based mud, water phase pH 12.5, 1.5 ml solution D
Protocol: In A, B and C iron oxalate was added.
The jar containing the mixture was then shaken. From this mixture a new sample of 1 ml mud was taken out with a syringe. This new sample consisting of 1 ml mud was mixed with 20 ml of water and further analysed in GGT (Garret Gas Train) whereby the mixture was stirred with a magnetic stirrer.
The mud which was used in example 2 was of the type interdrill 1.62 (density of the mud), wherein the pH value in the water phase is 12.5.

[2] = H2S absorption by iron oxalate at low concentrations of H2S, GGT analysis (Example 3); conditions: low H2S concentration, 200 mg iron oxalate in 15 ml mud, 1.5 ml solution D
Protocol: Measurements at low concentrations of H2S were also carried out.
From this mixture a new sample of 1 ml mud was taken out with a syringe and mixed with 20 ml of water and analysed in GGT (Garret Gas Train) whereby the mixture was stirred with a magnetic stirrer.

O=C([O-])C(=O)[O-].[Fe+2] [iron oxalate, iron(II) oxalate]
Amount of remaining H2S in the mud sample measured by GGT analysis ([1]; ageing 17 hours): 51 ppm
Amount of remaining H2S in the mud sample measured by GGT analysis ([1]; ageing 40 hours): 34 ppm
Amount of remaining H2S in the mud sample measured by GGT analysis ([1]; ageing 64 hours): 57 ppm
Amount of remaining H2S in the mud sample measured by GGT analysis ([2]; ageing 1 hour): 8.5 ppm
Amount of remaining H2S in the mud sample measured by GGT analysis ([2]; ageing 18 hours): 0 ppm
Amount of remaining H2S in the mud sample measured by GGT analysis ([2]; ageing 25 hours): 0 ppm

Reference: US6365053B1, “Removal of H2S in drilling mud” (Statoil Asa, priority 1998, dated 2002)
